# “And” between values parts separate entries of the source, which are not always exact repeats. Identical values can stand only once.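 Protocol summary: plate cells (96-well), add compound at 5 concentrations, incubate 48 h, interpolate endpoints linearly. The concentration for 50% growth inhibition is given as GI50. TGI marks complete inhibition of growth.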
# Assays:
# Experiment in all cases: NCI anticancer screen, dose series, 48 h
# RXF 393 renal = system: RXF 393 renal
# MDA-MB-231 breast = system: MDA-MB-231 breast
# 786-0 renal = system: 786-0 renal
# T-47D breast = system: T-47D breast
# TK-10 renal = system: TK-10 renal
# LOX IMVI melanoma = system: LOX IMVI melanoma
# SNB-19 CNS = system: SNB-19 CNS
# PC-3 prostate = system: PC-3 prostate
# MCF7 breast = system: MCF7 breast
# SR leukemia = system: SR leukemia
structure (smiles),measurement,setting,value
CC(C)(CCC(C)(C)c1ccccc1)c1ccccc1,TGI,RXF 393 renal,27.5 µM
same,TGI,MDA-MB-231 breast,31.5 µM
same,TGI,786-0 renal,29.5 µM
same,TGI,T-47D breast,36.6 µM
same,TGI,TK-10 renal,46.4 µM
same,TGI,LOX IMVI melanoma,32 µM
same,TGI,SNB-19 CNS,33.7 µM
same,TGI,PC-3 prostate,> 100 µM
same,TGI,MCF7 breast,32.8 µM
same,TGI,SR leukemia,50 µM
COc1ccc(C(=O)N/N=C/c2ccc(O)cc2O)cc1Nc1ccnc(C(F)(F)F)c1,GI50,RXF 393 renal,3.3 µM
same,TGI,RXF 393 renal,15.7 µM
same,GI50,MDA-MB-231 breast,1.71 µM
same,TGI,MDA-MB-231 breast,> 84.7 µM
same,GI50,786-0 renal,0.998 µM
same,TGI,786-0 renal,9.62 µM
same,GI50,T-47D breast,0.688 µM
same,TGI,T-47D breast,15 µM
same,GI50,TK-10 renal,0.994 µM
same,TGI,TK-10 renal,58.6 µM
same,GI50,LOX IMVI melanoma,0.454 µM
same,TGI,LOX IMVI melanoma,16.4 µM
same,GI50,SNB-19 CNS,0.816 µM
same,TGI,SNB-19 CNS,56.7 µM
same,GI50,PC-3 prostate,0.771 µM
same,TGI,PC-3 prostate,24.6 µM
same,GI50,MCF7 breast,1.57 µM
same,TGI,MCF7 breast,16.5 µM
same,GI50,SR leukemia,0.148 µM
same,TGI,SR leukemia,0.452 µM
C#CC#CC#CC#CC#CC#CC#CC#CCC1OC[C@H](COC(=O)O[C@@H](C(=O)O[C@H]2C[C@@]3(O)[C@@H](OC(=O)c4ccccc4)[C@@H]4[C@]5(OC(C)=O)CO[C@@H]5C[C@H](O)[C@@]4(C)C(=O)[C@H](OC(C)=O)C(=C2C)C3(C)C)[C@@H](NC(=O)c2ccccc2)c2ccccc2)O1 (some centres undefined),GI50,RXF 393 renal,1.25 µM
same,TGI,RXF 393 renal,> 15.3 µM
same,GI50,MDA-MB-231 breast,1.27 µM
same,TGI,MDA-MB-231 breast,> 33.3 µM
same,GI50,786-0 renal,8.21 µM
same,TGI,786-0 renal,> 33.3 µM
same,GI50,T-47D breast,0.516 µM
same,TGI,T-47D breast,> 33.3 µM
same,GI50,TK-10 renal,> 21.5 µM
same,TGI,TK-10 renal,> 33.3 µM
same,GI50,LOX IMVI melanoma,0.199 µM
same,TGI,LOX IMVI melanoma,> 33.3 µM
same,GI50,SNB-19 CNS,1.14 µM
same,TGI,SNB-19 CNS,> 33.3 µM
same,GI50,PC-3 prostate,0.569 µM
same,TGI,PC-3 prostate,> 33.3 µM
same,GI50,MCF7 breast,0.0921 µM
same,TGI,MCF7 breast,> 33.3 µM
same,GI50,SR leukemia,0.182 µM
same,TGI,SR leukemia,> 33.3 µM
COc1ccc2c(c1)C(=O)c1c-2n(CCCCl)c(=O)c2cc(N(C)C)ccc12,GI50,RXF 393 renal,25.5 µM
same,TGI,RXF 393 renal,90.7 µM
same,GI50,MDA-MB-231 breast,21.8 µM
same,TGI,MDA-MB-231 breast,81 µM
same,GI50,786-0 renal,33.1 µM
same,TGI,786-0 renal,> 100 µM
same,GI50,T-47D breast,34.6 µM
same,TGI,T-47D breast,> 100 µM
same,GI50,TK-10 renal,30.9 µM
same,TGI,TK-10 renal,> 100 µM
same,GI50,LOX IMVI melanoma,99.1 µM
same,TGI,LOX IMVI melanoma,> 100 µM
same,GI50,SNB-19 CNS,56.4 µM
same,TGI,SNB-19 CNS,> 100 µM
same,GI50,PC-3 prostate,34.5 µM
same,TGI,PC-3 prostate,> 100 µM
same,GI50,MCF7 breast,28.6 µM
same,TGI,MCF7 breast,> 100 µM
same,GI50,SR leukemia,19.9 µM
same,TGI,SR leukemia,> 100 µM
O=[N+]([O-])c1ccc(O)c2ncccc12,TGI,RXF 393 renal,> 100 µM and 18.2 µM
same,GI50,MDA-MB-231 breast,38.4 µM and 4.4 µM
same,TGI,MDA-MB-231 breast,> 100 µM and 20.6 µM
same,TGI,786-0 renal,> 100 µM and 11.6 µM
same,GI50,T-47D breast,23 µM and 2.38 µM
same,TGI,TK-10 renal,> 100 µM and 30.3 µM
same,TGI,LOX IMVI melanoma,> 100 µM and 13 µM
same,TGI,SNB-19 CNS,> 100 µM and 32.6 µM
same,GI50,PC-3 prostate,35.8 µM and 4.02 µM
same,TGI,PC-3 prostate,> 100 µM
same,GI50,MCF7 breast,23.1 µM and 3.39 µM
same,TGI,MCF7 breast,> 100 µM and 11.5 µM
same,GI50,SR leukemia,3.01 µM
same,TGI,SR leukemia,9.29 µM
COc1cccc(C2C(C#N)=C(N)Oc3cc(OC)ccc32)c1 (centres undefined),GI50,RXF 393 renal,0.026 µM
same,TGI,RXF 393 renal,81.1 µM
same,GI50,MDA-MB-231 breast,0.0519 µM
same,TGI,MDA-MB-231 breast,1.49 µM
same,GI50,786-0 renal,0.0556 µM
same,TGI,786-0 renal,> 66.8 µM
same,GI50,T-47D breast,0.0437 µM
same,TGI,T-47D breast,63.3 µM
same,GI50,TK-10 renal,11.8 µM
same,TGI,TK-10 renal,74.1 µM
same,GI50,LOX IMVI melanoma,0.0835 µM
same,TGI,LOX IMVI melanoma,> 100 µM
same,GI50,SNB-19 CNS,0.517 µM
same,TGI,SNB-19 CNS,> 89.6 µM
same,GI50,PC-3 prostate,0.0373 µM
same,TGI,PC-3 prostate,> 94.6 µM
same,GI50,MCF7 breast,0.0211 µM
same,TGI,MCF7 breast,> 72.4 µM
same,GI50,SR leukemia,0.0256 µM
same,TGI,SR leukemia,> 33.8 µM
Clc1ccc(-c2cn(-c3ccccc3)c(-c3ccccc3)n2)c(Cl)c1,GI50,RXF 393 renal,2.11 µM
same,TGI,RXF 393 renal,11.9 µM
same,GI50,MDA-MB-231 breast,23 µM
same,TGI,MDA-MB-231 breast,> 50 µM
same,GI50,786-0 renal,1.14 µM
same,TGI,786-0 renal,2.56 µM
same,GI50,T-47D breast,2.52 µM
same,TGI,T-47D breast,> 50 µM
same,GI50,TK-10 renal,1.14 µM
same,TGI,TK-10 renal,2.17 µM
same,GI50,LOX IMVI melanoma,> 14 µM
same,TGI,LOX IMVI melanoma,> 50 µM
same,GI50,SNB-19 CNS,6.98 µM
same,TGI,SNB-19 CNS,> 42.6 µM
same,GI50,PC-3 prostate,5.43 µM
same,TGI,PC-3 prostate,> 50 µM
same,GI50,MCF7 breast,1.56 µM
same,TGI,MCF7 breast,> 12.3 µM
same,GI50,SR leukemia,1.05 µM
same,TGI,SR leukemia,4.01 µM
Oc1ccc(-c2nc3ccc4[nH]ncc4c3c3c2CCCC3)c2cccnc12,GI50,RXF 393 renal,0.266 µM
same,TGI,RXF 393 renal,2.44 µM
same,GI50,MDA-MB-231 breast,0.423 µM
same,TGI,MDA-MB-231 breast,6.79 µM
same,GI50,786-0 renal,0.435 µM
same,TGI,786-0 renal,3.95 µM
same,GI50,T-47D breast,0.697 µM
same,TGI,T-47D breast,4.67 µM
same,GI50,TK-10 renal,0.496 µM
same,TGI,TK-10 renal,7.01 µM
same,GI50,LOX IMVI melanoma,0.203 µM
same,TGI,LOX IMVI melanoma,4.01 µM
same,GI50,SNB-19 CNS,0.164 µM
same,TGI,SNB-19 CNS,13.1 µM
same,GI50,PC-3 prostate,0.389 µM
same,TGI,PC-3 prostate,6.56 µM
same,GI50,MCF7 breast,0.179 µM
same,TGI,MCF7 breast,2.89 µM
same,GI50,SR leukemia,0.12 µM
same,TGI,SR leukemia,7.79 µM
CCc1nc(N)nc(N)c1-c1ccc(Cl)c(N=NN(C)C)c1,TGI,RXF 393 renal,> 100 µM
same,TGI,MDA-MB-231 breast,> 100 µM
same,TGI,786-0 renal,> 95.7 µM
same,TGI,T-47D breast,> 93 µM
same,TGI,TK-10 renal,> 100 µM
same,TGI,LOX IMVI melanoma,> 100 µM
same,TGI,SNB-19 CNS,> 100 µM
same,TGI,PC-3 prostate,> 100 µM
same,TGI,MCF7 breast,> 81.6 µM
same,TGI,SR leukemia,44.8 µM
C=C1C(=O)O[C@H]2[C@H]1CC/C(COC(=O)C(=O)c1cn(C)c3ccc(OC)cc13)=C\CC[C@@]1(C)O[C@@H]21,GI50,RXF 393 renal,2.02 µM
same,TGI,RXF 393 renal,3.95 µM
same,GI50,MDA-MB-231 breast,4.39 µM
same,TGI,MDA-MB-231 breast,10.6 µM
same,GI50,786-0 renal,3.84 µM
same,TGI,786-0 renal,7.56 µM
same,GI50,T-47D breast,5.98 µM
same,TGI,T-47D breast,11.1 µM
same,GI50,TK-10 renal,4.79 µM
same,TGI,TK-10 renal,13.2 µM
same,GI50,LOX IMVI melanoma,1.57 µM
same,TGI,LOX IMVI melanoma,2.62 µM
same,GI50,SNB-19 CNS,9.07 µM
same,TGI,SNB-19 CNS,21.8 µM
same,GI50,PC-3 prostate,5.89 µM
same,TGI,PC-3 prostate,10.8 µM
same,GI50,MCF7 breast,2.8 µM
same,TGI,MCF7 breast,16.4 µM
same,GI50,SR leukemia,2.34 µM
same,TGI,SR leukemia,42.5 µM
